Experimental data taken from publication PMC6045374 (ACS Omega, 2018).

Legend:
[1] = target: T1, homoserine kinase (CglThrB-WT) (Corynebacterium glutamicum, UniProt P07128); assay: steady-state enzyme kinetics, ADP colorimetric assay; assay type: biochemical
T1 sequence (P07128 2-309): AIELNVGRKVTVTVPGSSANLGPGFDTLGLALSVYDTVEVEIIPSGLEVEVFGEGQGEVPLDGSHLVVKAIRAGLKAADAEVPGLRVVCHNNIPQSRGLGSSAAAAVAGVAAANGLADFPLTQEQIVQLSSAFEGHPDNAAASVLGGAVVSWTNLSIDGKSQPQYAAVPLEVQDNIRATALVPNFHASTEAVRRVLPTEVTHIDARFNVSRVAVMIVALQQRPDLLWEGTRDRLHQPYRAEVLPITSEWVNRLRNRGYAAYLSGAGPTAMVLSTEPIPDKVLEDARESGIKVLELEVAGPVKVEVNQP

[2] = target: T2, homoserine kinase (CglThrB-A20G) (Corynebacterium glutamicum, UniProt P07128, A20G); assay: as above; assay type: biochemical
T2 sequence (P07128 1-309 A20G): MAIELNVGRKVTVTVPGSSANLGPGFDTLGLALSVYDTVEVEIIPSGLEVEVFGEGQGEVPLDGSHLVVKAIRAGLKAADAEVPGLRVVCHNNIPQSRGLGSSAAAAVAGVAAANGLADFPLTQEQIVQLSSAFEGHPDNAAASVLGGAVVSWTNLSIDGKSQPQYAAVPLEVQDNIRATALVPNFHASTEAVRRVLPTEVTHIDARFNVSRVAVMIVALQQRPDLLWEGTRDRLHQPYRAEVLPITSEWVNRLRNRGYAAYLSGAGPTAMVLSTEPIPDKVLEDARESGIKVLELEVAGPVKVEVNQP

## C[C@@H](O)[C@H](N)C(=O)O [L-threonine]
[1]
  Ki: 4.73 mM
[2]
  Ki: 25.2 mM
